Data: publication PMC10342533, “Novel Tetrazole Derivatives Targeting Tubulin Endowed with Antiproliferative Activity against Glioblastoma Cells” (International Journal of Molecular Sciences, 2023)
≈ marks a conversion by molar mass, not a printed value.

Assays:
[1] = system: HeLa (cervix epithelioid carcinoma); assay: Cell growth inhibition, MTT assay, HeLa; format: cell-based; details: Homo sapiens
Method: (§1) The ability of the synthesized compounds to inhibit the cell proliferation of human cancer cell lines was assayed by measuring cell viability through the use of the MTT method 72 h after treatment. For this purpose, representative cell lines of the most frequent kinds of cancer were selected, including the following: HeLa (cervix epithelioid carcinoma), MCF7 (breast adenocarcinoma), U87 MG (glioblastoma), T98G (temozolomide resistant glioblastoma), HepG2 (hepatocellular carcinoma), HCT8 (colorectal carcinoma), and HT-29 (colon adenocarcinoma).
(§2) The cell lines were obtained from ATTC (Manassas, VA, USA). […] The cells were periodically tested for Mycoplasma infection by using a MycoAlert kit (Lonza, Norwest, Australia), and only Mycoplasma-free cells were used in the experiments.
(§3) Then, every compound was added (10 µL/well) to a final concentration of 10 µM. Untreated cells were used as negative controls. The antiproliferative activity of compounds was measured 72 h after drug exposure through the MTT assay. […] For this purpose, compounds were used at different concentrations, ranging from 10^−10 to 10^−2 M. Measurements were performed in triplicate, and each experiment was repeated three times. The IC50 values were determined using Origin software (version 9.6, OriginLab, Washington, DC, USA).

[2] = system: HT-29 (colon adenocarcinoma); assay: Cell growth inhibition, MTT assay, HT-29, without or with verapamil; format: cell-based, human
Method: as §1
Multidrug resistance (MDR) proteins, especially P-glycoprotein (P-gp), are often involved in resistance mechanisms affecting tubulin-binding drugs that are frequently related to the failure of cancer therapies. […] These pumps are also part of the blood–brain barrier.
as §2, §3

[3] = biological target: T1, microtubular protein isolated from calf brains (bovine brain tubulin) (Bos taurus, UniProt P81947+Q6B856); assay: Tubulin polymerization inhibition (TPI); format: biochemical; details: in vitro tubulin polymerization, mean ± SD
T1 construct: from tissue; host or cells: calf (bovine) brain
T1 sequence (Q6B856 whole entry): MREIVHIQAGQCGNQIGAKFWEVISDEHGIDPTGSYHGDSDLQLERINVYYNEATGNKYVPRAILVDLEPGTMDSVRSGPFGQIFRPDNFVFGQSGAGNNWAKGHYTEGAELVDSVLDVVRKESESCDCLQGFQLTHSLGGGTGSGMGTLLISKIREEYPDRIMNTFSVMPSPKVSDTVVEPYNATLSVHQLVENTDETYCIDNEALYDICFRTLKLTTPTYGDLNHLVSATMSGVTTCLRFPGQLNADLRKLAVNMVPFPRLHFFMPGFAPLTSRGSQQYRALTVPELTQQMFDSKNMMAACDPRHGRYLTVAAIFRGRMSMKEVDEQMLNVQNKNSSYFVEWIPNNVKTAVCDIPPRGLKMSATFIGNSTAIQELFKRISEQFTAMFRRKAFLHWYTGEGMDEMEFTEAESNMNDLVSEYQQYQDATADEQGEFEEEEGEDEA
T1 sequence (P81947 whole entry): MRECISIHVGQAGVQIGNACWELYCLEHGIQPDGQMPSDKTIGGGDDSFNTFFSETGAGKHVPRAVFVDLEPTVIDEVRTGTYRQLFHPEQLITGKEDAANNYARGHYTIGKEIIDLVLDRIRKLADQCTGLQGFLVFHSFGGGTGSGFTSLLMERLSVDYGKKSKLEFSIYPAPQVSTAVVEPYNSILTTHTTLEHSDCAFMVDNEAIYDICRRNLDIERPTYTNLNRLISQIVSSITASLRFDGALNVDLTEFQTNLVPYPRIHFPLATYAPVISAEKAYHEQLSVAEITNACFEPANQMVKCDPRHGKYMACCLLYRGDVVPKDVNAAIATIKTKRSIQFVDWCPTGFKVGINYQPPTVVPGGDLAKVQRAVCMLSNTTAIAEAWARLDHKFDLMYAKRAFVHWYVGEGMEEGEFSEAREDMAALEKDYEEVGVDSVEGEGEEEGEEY
Method: We evaluated the capacity of the new synthesized compounds to inhibit the polymerization of microtubular protein isolated from calf brains. The assays were performed by taking absorbance measurements to quantify the amount of polymer mass formed in the presence (or absence; negative controls) of the compounds.
Bovine brain tubulin was isolated as previously described by following a modified version of the Shelanski method. The protein was stored at −80 °C, and its concentration was determined by employing the Bradford method before each use. […] Tubulin polymerization, caused when heating the samples, was accompanied by an increase in the absorbance (at 450 nm) of the sample that was monitored by using a Helios α spectrophotometer. […] Measurements were performed in triplicate in two independent experiments using microtubular proteins from different preparations.

[4] = system: HCT8 (colorectal carcinoma); assay: Cell growth inhibition, MTT assay, HCT8; format: cell-based; details: Homo sapiens
Method: as §1, §2, §3

[5] = Aqueous solubility, shake-flask method, phosphate buffer pH 7.4; format: physicochemical; details: thermodynamic from solid, phosphate buffer pH 7.4, shake-flask, mean ± SD of three experiments
Method: The aqueous solubility of tetrazole derivatives was determined by the shaking flask methodology in phosphate buffer at pH 7.4, microfiltration, and quantification of the saturated solutions via UV spectroscopy. […] The introduction of polar groups on the 3-indole position was favorable since the most soluble compounds were the oximes 16–19 (38–53 µg/mL), followed by the carbaldehyde series 12–15 (33–45 µg/mL), and the carbonitrile derivatives (25–40 µg/mL), whereas the unsubstituted indoles 8–11 were the least soluble series (19–35 µg/mL).
The aqueous solubility of the compounds was determined using the saturation shake-flask method. First, calibration lines at the maximum wavelength of absorbance were determined for each compound. Then, 5 mg of each compound was suspended in 500 µL of pH 7.4 buffer, and the resulting mixture was shaken for 72 h at room temperature and filtrated over a […] filter to remove the insoluble fraction. The concentration of the compound in the supernatant (saturated solution) was determined by measuring UV absorbance at the maximum wavelength of absorbance and interpolation in the calibration line. A Helios Alfa Spectrophotometer was used for the UV measurements. The aqueous solubility values are given as the average of three independent experiments.

U87 MG (glioblastoma) = assay: Cell growth inhibition, MTT assay, U87 MG; format: cell-based; details: Homo sapiens, U-87 MG
Method: as §1, §2, §3

[6] = system: MCF7 (breast adenocarcinoma); assay: Cell growth inhibition, MTT assay, MCF7; format: cell-based; details: Homo sapiens
Method: as §1, §2, §3

[7] = system: HepG2 (hepatocellular carcinoma); assay: Cell growth inhibition, MTT assay, HepG2; format: cell-based; details: Homo sapiens
Method: as §1, §2, §3

[8] = system: T98G (temozolomide resistant glioblastoma); assay: Cell growth inhibition, MTT assay, T98G; format: cell-based; details: Homo sapiens
Method: as §1, §2, §3

[9] = system: HEK-293 (embryonic kidney); assay: Cell growth inhibition, MTT assay, non-tumor HEK-293; format: cell-based; details: Homo sapiens
Method: The ability of the synthesized compounds to inhibit the cell proliferation of human cancer cell lines was assayed by measuring cell viability through the use of the MTT method 72 h after treatment. For this purpose, representative cell lines of the most frequent kinds of cancer were selected, including the following: HeLa (cervix epithelioid carcinoma), MCF7 (breast adenocarcinoma), U87 MG (glioblastoma), T98G (temozolomide resistant glioblastoma), HepG2 (hepatocellular carcinoma), HCT8 (colorectal carcinoma), and HT-29 (colon adenocarcinoma). […] The compounds were also tested against the non-tumor HEK-293 cells to study their selectivity toward cancer cells. […] The cell lines were obtained from ATTC (Manassas, VA, USA). […] The cells were periodically tested for Mycoplasma infection by using a MycoAlert kit (Lonza, Norwest, Australia), and only Mycoplasma-free cells were used in the experiments. […] Louis, MO, USA), which was dissolved in PBS at 5 mg/mL in accordance with the manufacturer's instructions. […] Untreated cells were used as negative controls. The antiproliferative activity of compounds was measured 72 h after drug exposure through the MTT assay. […] For this purpose, compounds were used at different concentrations, ranging from 10^-10 to 10^-2 M. Measurements were performed in triplicate, and each experiment was repeated three times. The IC50 values were determined using Origin software (version 9.6, OriginLab, Washington, DC, USA).

[10] = Homo sapiens, HT-29, 72 h after drug exposure
[11] = Homo sapiens, HT-29, mean ± SD, Table S1
[12] = mean ± SD, Table S1, in the presence of verapamil (10 µM)
[13] = HCT-8, 72 h after drug exposure
[14] = HEK293, 72 h, non-tumorigenic cell line
[15] = HEK293, heading: IC50 HEK-293, mean ± SD, Table S1, non-tumorigenic cell line

SMILES | IC50 ([1]; 72 h after drug exposure) | IC50 ([1]; mean ± SD, Table S1) | IC50 [2, 10] | IC50 [2, 11] | IC50 [2, 12] | IC50 [3] | IC50 [4, 13] | solubility at 72 h [5] | IC50 (U87 MG (glioblastoma); 72 h after drug exposure) | IC50 (U87 MG (glioblastoma); mean ± SD, Table S1) | IC50 ([6]; 72 h after drug exposure) | IC50 ([6]; mean ± SD, Table S1) | IC50 ([7]; 72 h after drug exposure) | IC50 ([7]; mean ± SD, Table S1) | IC50 ([8]; 72 h, 72 h after drug exposure) | IC50 ([8]; mean ± SD, Table S1) | IC50 [9, 14] | IC50 [9, 15] | IC50 ([4]; HCT-8, mean ± SD, Table S1)
Cn1cc(C#N)c2cc(-n3nnnc3-c3cc(Cl)nc(Cl)c3)ccc21 [Compound 20, 5-(5-(2,6-dichloropyridin-4-yl)-1H-tetrazol-1-yl)-1-methyl-1H-indole-3-carbonitrile] | 0.625 µM | 0.6254 ± 0.0042 µM | 0.679 µM | 0.6794 ± 0.004 µM | 0.6823 ± 0.0063 µM | 6.2 ± 0.3 µM | 0.628 µM | 25.3 ± 0.1 µg/mL (≈ 68.3 µM) | 0.522 µM | 0.5221 ± 0.0031 µM | 0.631 µM | 0.6314 ± 0.0049 µM | 0.634 µM | 0.6345 ± 0.0056 µM | 0.555 µM | 0.5554 ± 0.0042 µM | > 10 µM | > 10 µM | –
Cn1ccc2cc(-n3nnnc3-c3cc(Cl)nc(Cl)c3)ccc21 [Compound 8, 5-(5-(2,6-dichloropyridin-4-yl)-1H-tetrazol-1-yl)-1-methyl-1H-indole] | 0.045 µM | 0.0451 ± 0.0003 µM | – | 0.0523 ± 0.0004 µM | 0.0524 ± 0.0002 µM | 2.8 ± 0.1 µM | 0.049 µM | 19.3 ± 0.1 µg/mL (≈ 55.9 µM) | 0.032 µM | 0.0324 ± 0.0002 µM | 0.043 µM | 0.0432 ± 0.0004 µM | 0.049 µM | 0.0491 ± 0.0005 µM | 0.041 µM | – | 4.72 µM | – | 0.0494 ± 0.0003 µM
CSc1cc(-c2nnnn2-c2ccc3c(c2)c(C#N)cn3C)cc(SC)n1 [Compound 23, 5-(5-(2,6-bis(methylsulfanyl)pyridin-4-yl)-1H-tetrazol-1-yl)-1-methyl-1H-indole-3-carbonitrile] | 0.841 µM | 0.8411 ± 0.0061 µM | 0.929 µM | 0.9291 ± 0.0078 µM | 0.9275 ± 0.0074 µM | 7.9 ± 0.2 µM | 0.822 µM | 34.1 ± 0.3 µg/mL (≈ 86.7 µM) | 0.831 µM | 0.8312 ± 0.0048 µM | 0.963 µM | 0.9633 ± 0.0071 µM | 0.877 µM | 0.8772 ± 0.0059 µM | 0.865 µM | 0.8652 ± 0.0072 µM | > 10 µM | > 10 µM | 0.8223 ± 0.0067 µM
CSc1cc(-c2nnnn2-c2ccc3c(c2)c(C#N)cn3C)cc(Cl)n1 [Compound 22, 5-(5-(2-chloro-6-(methylsulfanyl)pyridin-4-yl)-1H-tetrazol-1-yl)-1-methyl-1H-indole-3-carbonitrile] | 0.341 µM | 0.3412 ± 0.0028 µM | 0.355 µM | 0.355 ± 0.0039 µM | 0.357 ± 0.0039 µM | 4.6 ± 0.2 µM | 0.335 µM | 31.2 ± 0.3 µg/mL (≈ 81.7 µM) | 0.312 µM | 0.3123 ± 0.0026 µM | 0.329 µM | – | 0.327 µM | 0.3273 ± 0.0028 µM | 0.359 µM | 0.359 ± 0.0039 µM | > 10 µM | > 10 µM | 0.3353 ± 0.0033 µM
Cn1cc(C=NO)c2cc(-n3nnnc3-c3cc(Cl)nc(Cl)c3)ccc21 [Compound 16, 5-(5-(2,6-dichloropyridin-4-yl)-1H-tetrazol-1-yl)-1-methyl-1H-indole-3-carbaldehyde oxime] | 0.207 µM | 0.2071 ± 0.002 µM | 0.211 µM | 0.2111 ± 0.002 µM | – | 3.7 ± 0.2 µM | 0.219 µM | 38.2 ± 0.4 µg/mL (≈ 98.4 µM) | 0.131 µM | 0.1313 ± 0.0011 µM | 0.21 µM | 0.2101 ± 0.0019 µM | 0.22 µM | 0.22 ± 0.0023 µM | 0.127 µM | 0.1273 ± 0.0009 µM | 7.01 µM | – | 0.2191 ± 0.0015 µM
CSc1cc(-c2nnnn2-c2ccc3c(c2)c(C=NO)cn3C)cc(Cl)n1 [Compound 18, 5-(5-(2-chloro-6-(methylsulfanyl)pyridin-4-yl)-1H-tetrazol-1-yl)-1-methyl-1H-indole-3-carbaldehyde oxime] | 0.131 µM | – | 0.152 µM | 0.1523 ± 0.0014 µM | 0.15 ± 0.0016 µM | 3.3 ± 0.1 µM | 0.115 µM | 42.7 ± 0.5 µg/mL (≈ 107 µM) | 0.093 µM | 0.0934 ± 0.001 µM | 0.123 µM | 0.123 ± 0.0017 µM | 0.127 µM | – | 0.102 µM | 0.102 ± 0.0011 µM | 6.13 µM | – | 0.115 ± 0.0013 µM
